Measurements reported in patent US9695155B2, “Herbicidal substituted pyrimidinyloxy benzene compounds” (E. I. DU PONT DE NEMOURS AND COMPANY, priority 2013, dated 2017).

Key:
galium [1] = assay: Test C postemergence; assay type: in vivo, Galium aparine; details: Galium, post-emergence
Outline: (§1)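 Sown in loam/sand → sprayed pre-emergence; or grown to 1–4 leaves in peat mix → sprayed post-emergence. Same solvent/surfactant formulation both ways. Greenhouse 13–15 d. Score 0–100 visual.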

barnyardgrass [2] = assay: Test C preemergence; assay type: in vivo, Echinochloa crus-galli; details: Echinochloa crus-galli, pre-emergence
Outline: as §1

soybean [3] = assay: Test C preemergence; assay type: in vivo, Glycine max; details: Glycine max, pre-emergence
Outline: as §1

morningglory = assay: Test C preemergence; assay type: in vivo, Ipomoea coccinea; details: Ipomoea, pre-emergence
Outline: as §1

pigweed = assay: Test A postemergence; assay type: in vivo, Amaranthus retroflexus; details: Amaranthus retroflexus, post-emergence
Outline: (§2)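 Visual injury scored 0–100 (100 = complete control) against untreated controls about 10 days after treatment in a greenhouse. Test chemicals, formulated with surfactant in non-phytotoxic solvent, were sprayed on soil preemergence or on 2-10 cm, one- to two-leaf plants postemergence.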

barnyardgrass [4] = assay: Test B flooded paddy test; assay type: in vivo, Echinochloa crus-galli; details: Echinochloa crus-galli; Flood, 250 g ai/ha; 0 to 100 scale where 0 is no effect and 100 is complete control; read-out: Plant response rating, Barnyardgrass
Outline: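 Greenhouse flooded-pot test: compounds dosed into 3 cm standing water over 2-leaf plants, flood held constant. Rated visually after 13–15 days on 0–100 (complete control = 100); a dash marks no test result.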

oilseed rape = assay: Test C preemergence; assay type: in vivo, Brassica napus; details: Brassica napus, pre-emergence
Outline: as §1

johnsongrass = assay: Test C postemergence; assay type: in vivo, Sorghum halepense; details: Sorghum halepense, post-emergence
Outline: as §1

waterhemp = assay: Test C preemergence; assay type: in vivo, Amaranthus rudis; details: Amaranthus tuberculatus, pre-emergence
Outline: as §1

soybean [5] = assay: Test C postemergence; assay type: in vivo, Glycine max; details: Glycine max, post-emergence
Outline: as §1

galium [6] = assay: Test C preemergence; assay type: in vivo, Galium aparine; details: Galium, pre-emergence
Outline: as §1

velvetleaf = assay: Test C postemergence; assay type: in vivo, Abutilon theophrasti; details: Abutilon theophrasti, post-emergence
Outline: as §1

barnyardgrass [7] = assay: Test A postemergence; assay type: in vivo, Echinochloa crus-galli; details: Echinochloa crus-galli, post-emergence, 240 h
Outline: as §2

giant foxtail = assay: Test A preemergence; assay type: in vivo, Setaria faberii; details: Setaria faberi, pre-emergence, 240 h
Outline: as §2

chickweed = assay: Test C postemergence; assay type: in vivo, Stellaria media; details: Stellaria media, post-emergence
Outline: as §1

N#Cc1cccc(Oc2ncc(Br)cn2)c1-n1cc(C(F)(F)F)cn1 [Compound 59, 3-[(5-bromo-2-pyrimidinyl)oxy]-2-[4-(trifluoromethyl)-1H-pyrazol-1-yl]benzonitrile]
pest or weed control at 125 g/ha (galium [1]; 125 g ai/ha, postemergence, read-out: Plant response rating (0 to 100), Galium): 90% | pest or weed control at 250 g/ha (galium [1]; 250 g ai/ha, postemergence, read-out: Plant response rating (0 to 100), Galium): 90% | pest or weed control at 31 g/ha (galium [1]; Postemergence, 31 g ai/ha, scale 0 to 100 (0 no effect, 100 complete control), 13 to 15 days, read-out: Plant response rating, Galium): 65% | pest or weed control at 62 g/ha (galium [1]; Postemergence, 62 g ai/ha, scale 0 to 100 (0 no effect, 100 complete control), read-out: Plant response rating, Galium): 80% | pest or weed control at 62 g/ha (barnyardgrass [2]; 62 g ai/ha, preemergence, scale 0 (no effect) to 100 (complete control), read-out: Barnyardgrass plant response rating): 100% | pest or weed control at 125 g/ha (barnyardgrass [2]; 125 g ai/ha, preemergence, scale 0 (no effect) to 100 (complete control), read-out: Barnyardgrass plant response rating): 100% | pest or weed control at 250 g/ha (barnyardgrass [2]; 250 g ai/ha, preemergence, scale 0 (no effect) to 100 (complete control), read-out: Barnyardgrass plant response rating): 100% | pest or weed control at 31 g/ha (barnyardgrass [2]; Preemergence, 31 g ai/ha, scale 0 to 100, 0 no effect, 100 complete control, read-out: Plant response rating, Barnyardgrass): 80% | plant injury at 62 g/ha (soybean [3]; 62 g ai/ha, preemergence, scale 0 (no effect) to 100 (complete control), read-out: Soybean plant response rating): 90% | plant injury at 125 g/ha (soybean [3]; 125 g ai/ha, preemergence, scale 0 (no effect) to 100 (complete control), read-out: Soybean plant response rating): 90% | plant injury at 250 g/ha (soybean [3]; 250 g ai/ha, preemergence, scale 0 (no effect) to 100 (complete control), read-out: Soybean plant response rating): 95% | plant injury at 31 g/ha (soybean [3]; Preemergence, 31 g ai/ha, scale 0 to 100, 0 no effect, 100 complete control, read-out: Plant response rating, Soybean): 85% | pest or weed control at 62 g/ha (morningglory; 62 g ai/ha, preemergence, scale 0 (no effect) to 100 (complete control), read-out: Morningglory plant response rating): 100% | pest or weed control at 125 g/ha (morningglory; 125 g ai/ha, preemergence, scale 0 (no effect) to 100 (complete control), read-out: Morningglory plant response rating): 100% | pest or weed control at 250 g/ha (morningglory; 250 g ai/ha, preemergence, scale 0 (no effect) to 100 (complete control), read-out: Morningglory plant response rating): 100% | pest or weed control at 31 g/ha (morningglory; Preemergence, 31 g ai/ha, scale 0 to 100, 0 no effect, 100 complete control, read-out: Plant response rating, Morningglory): 95% | pest or weed control at 125 g/ha (pigweed; 125 g ai/ha, 0 to 100 scale where 0 is no effect and 100 is complete control, read-out: Plant response rating, Pigweed): 100% | pest or weed control at 500 g/ha (pigweed; 240 h, 500 g ai/ha, 0 to 100 scale, 0 no effect, 100 complete control, read-out: Plant response rating Pigweed): 100% | pest or weed control at 250 g/ha (barnyardgrass [4]): 40% | plant injury at 62 g/ha (oilseed rape; 62 g ai/ha, preemergence, scale 0 (no effect) to 100 (complete control), read-out: Oilseed Rape plant response rating): 100% | plant injury at 125 g/ha (oilseed rape; 125 g ai/ha, preemergence, scale 0 (no effect) to 100 (complete control), read-out: Oilseed Rape plant response rating): 100% | plant injury at 250 g/ha (oilseed rape; 250 g ai/ha, preemergence, scale 0 (no effect) to 100 (complete control), read-out: Oilseed Rape plant response rating): 100% | plant injury at 31 g/ha (oilseed rape; Preemergence, 31 g ai/ha, scale 0 to 100, 0 no effect, 100 complete control, read-out: Plant response rating, Oilseed Rape): 90% | pest or weed control at 125 g/ha (johnsongrass; 125 g ai/ha, postemergence, read-out: Plant response rating (0 to 100), Johnsongrass): 35% | pest or weed control at 250 g/ha (johnsongrass; 250 g ai/ha, postemergence, read-out: Plant response rating (0 to 100), Johnsongrass): 85% | pest or weed control at 31 g/ha (johnsongrass; Postemergence, 31 g ai/ha, scale 0 to 100 (0 no effect, 100 complete control), 13 to 15 days, read-out: Plant response rating, Johnsongrass): 15% | pest or weed control at 62 g/ha (johnsongrass; Postemergence, 62 g ai/ha, scale 0 to 100 (0 no effect, 100 complete control), read-out: Plant response rating, Johnsongrass): 35% | pest or weed control at 62 g/ha (waterhemp; 62 g ai/ha, preemergence, scale 0 (no effect) to 100 (complete control), read-out: Waterhemp plant response rating): 100% | pest or weed control at 125 g/ha (waterhemp; 125 g ai/ha, preemergence, scale 0 (no effect) to 100 (complete control), read-out: Waterhemp plant response rating): 100% | pest or weed control at 250 g/ha (waterhemp; 250 g ai/ha, preemergence, scale 0 (no effect) to 100 (complete control), read-out: Waterhemp plant response rating): 100% | pest or weed control at 31 g/ha (waterhemp; Preemergence, 31 g ai/ha, scale 0 to 100, 0 no effect, 100 complete control, read-out: Plant response rating, Waterhemp): 100% | Soybean plant response rating (crop injury, 0-100 scale) at 125 g/ha (soybean [5]; 125 g ai/ha, postemergence, read-out: Plant response rating (0 to 100), Soybean): 98% | Soybean plant response rating (crop injury, 0-100 scale) at 250 g/ha (soybean [5]; 250 g ai/ha, postemergence): 98% | Soybean plant response rating (crop injury, 0-100 scale) at 31 g/ha (soybean [5]; Postemergence, 31 g ai/ha, scale 0 to 100 (0 no effect, 100 complete control), 13 to 15 days): 75% | Soybean plant response rating (crop injury, 0-100 scale) at 62 g/ha (soybean [5]; Postemergence, 62 g ai/ha, scale 0 to 100 (0 no effect, 100 complete control)): 85% | pest or weed control at 62 g/ha (galium [6]; 62 g ai/ha, preemergence, scale 0 (no effect) to 100 (complete control), read-out: Galium plant response rating): 100% | pest or weed control at 125 g/ha (galium [6]; 125 g ai/ha, preemergence, scale 0 (no effect) to 100 (complete control), read-out: Galium plant response rating): 100% | pest or weed control at 250 g/ha (galium [6]; 250 g ai/ha, preemergence, scale 0 (no effect) to 100 (complete control), read-out: Galium plant response rating): 100% | pest or weed control at 31 g/ha (galium [6]; Preemergence, 31 g ai/ha, scale 0 to 100, 0 no effect, 100 complete control, read-out: Plant response rating, Galium): 100% | pest or weed control at 125 g/ha (velvetleaf; 125 g ai/ha, postemergence, read-out: Plant response rating (0 to 100), Velvetleaf): 55% | pest or weed control at 250 g/ha (velvetleaf; 250 g ai/ha, postemergence, read-out: Plant response rating (0 to 100), Velvetleaf): 70% | pest or weed control at 31 g/ha (velvetleaf; Postemergence, 31 g ai/ha, scale 0 to 100 (0 no effect, 100 complete control), 13 to 15 days, read-out: Plant response rating, Velvetleaf): 15% | pest or weed control at 62 g/ha (velvetleaf; Postemergence, 62 g ai/ha, scale 0 to 100 (0 no effect, 100 complete control), read-out: Plant response rating, Velvetleaf): 30% | pest or weed control at 125 g/ha (barnyardgrass [7]; 125 g ai/ha, 0 to 100 scale where 0 is no effect and 100 is complete control, read-out: Plant response rating, Barnyardgrass): 100% | pest or weed control at 500 g/ha (barnyardgrass [7]; 500 g ai/ha, 0 to 100 scale, 0 no effect, 100 complete control, read-out: Plant response rating Barnyardgrass): 100% | pest or weed control at 125 g/ha (giant foxtail; 125 g ai/ha, 0 to 100 scale where 0 is no effect and 100 is complete control, read-out: Plant response rating, Foxtail, Giant): 100% | pest or weed control at 500 g/ha (giant foxtail; 500 g ai/ha, 0 to 100 scale, 0 no effect, 100 complete control, approx. 10 days, read-out: Foxtail, Giant plant response rating): 100% | pest or weed control at 125 g/ha (chickweed; 125 g ai/ha, postemergence, read-out: Plant response rating (0 to 100), Chickweed): 80% | pest or weed control at 250 g/ha (chickweed; 250 g ai/ha, postemergence, read-out: Plant response rating (0 to 100), Chickweed): 98% | pest or weed control at 31 g/ha (chickweed; Postemergence, 31 g ai/ha, scale 0 to 100 (0 no effect, 100 complete control), 13 to 15 days, read-out: Plant response rating, Chickweed): 40% | pest or weed control at 62 g/ha (chickweed; Postemergence, 62 g ai/ha, scale 0 to 100 (0 no effect, 100 complete control), read-out: Plant response rating, Chickweed): 70%
